Results reported in patent US9255295B2, “Method for evaluating the sensitizing potential of a test compound” (IMMUNOSEARCH, priority 2010, dated 2016).
Like-named read-outs stand apart in the source and are kept apart here.

What was measured:
[1] = official classification: non-sensitizer, irritant, or sensitizing Extreme/Strong/Moderate/Weak; cited from earlier work
[2] = tested on: ARE gene family (AKR1B10, AKR1C1, AKR1C2, CYP1B1, FTH1P, FTL, G6PD, GCLM, NQO2, SLC7A11, TXNRD1, UGT1A1, UGT1A9, YWHAZ, CD36, CYP1A1, GCLC, HMOX1, NQO1, PSME2 …); settings: human
[3] = tested on: EPISKIN model; assay: Sensitizing power: sensitizing potential retested at successive dilutions in the EPISKIN model

Oc1ccc(O)cc1 [Hydroquinone]
Class [1]: S
AHR expression compared to control ([2]; 15 min, 0.1 %): 0.8
ARE >1.3 (NUMBER OF GENES) ([2]; 15 min, 0.1 %): 5
GCLM expression compared to control ([2]; 15 min, 0.1 %): 0.7
NQO2 expression compared to control ([2]; 15 min, 0.1 %): 0.9
SLC7A11 expression compared to control ([2]; 15 min, 0.1 %): 1.3
TOTAL ARE (NUMBER OF GENES) ([2]; 15 min, 0.1 %): 5
UGT1A9 expression compared to control ([2]; 15 min, 0.1 %): 0.8
AHR expression compared to control ([2]; 15 min, 1 %): 0.6
ARE >1.3 (NUMBER OF GENES) ([2]; 15 min, 1 %): 9
GCLM expression compared to control ([2]; 15 min, 1 %): 1.8
NQO2 expression compared to control ([2]; 15 min, 1 %): 1.4
SLC7A11 expression compared to control ([2]; 15 min, 1 %): 1.5
TOTAL ARE (NUMBER OF GENES) ([2]; 15 min, 1 %): 9
UGT1A9 expression compared to control ([2]; 15 min, 1 %): 1.5
AHR expression compared to control ([2]; 15 min, 10 %): 0.6
ARE >1.3 (NUMBER OF GENES) ([2]; 15 min, 10 %): 13
GCLM expression compared to control ([2]; 15 min, 10 %): 2.0
NQO2 expression compared to control ([2]; 15 min, 10 %): 1.5
SLC7A11 expression compared to control ([2]; 15 min, 10 %): 1.6
TOTAL ARE (NUMBER OF GENES) ([2]; 15 min, 10 %): 13
UGT1A9 expression compared to control ([2]; 15 min, 10 %): 1.3
ARE >1.3 (NUMBER OF GENES) ([2]; 15 min, 50 %): 15
TOTAL ARE (NUMBER OF GENES) ([2]; 15 min, 50 %): 15
AKR1B10 expression compared to control ([2]; 6 h, 0.1 %): 0.9
AKR1C1 expression compared to control ([2]; 6 h, 0.1 %): 1.2
AKR1C2 expression compared to control ([2]; 6 h, 0.1 %): 0.7
CD36 expression compared to control ([2]; 6 h, 0.1 %): 0.7
CYP1A1 expression compared to control ([2]; 6 h, 0.1 %): 8.0
CYP1B1 expression compared to control ([2]; 6 h, 0.1 %): 1.8
FTH1P expression compared to control ([2]; 6 h, 0.1 %): 1.2
FTL expression compared to control ([2]; 6 h, 0.1 %): 1.5
GCLC expression compared to control ([2]; 6 h, 0.1 %): 1.3
HMOX1 expression compared to control ([2]; 6 h, 0.1 %): 1.1
NQO1 expression compared to control ([2]; 6 h, 0.1 %): 1.2
S100A8 expression compared to control ([2]; 6 h, 0.1 %): 1.1
TXNRD1 expression compared to control ([2]; 6 h, 0.1 %): 2.3
UGT1A1 expression compared to control ([2]; 6 h, 0.1 %): 1.7
AKR1B10 expression compared to control ([2]; 6 h, 1 %): 1.0
AKR1C1 expression compared to control ([2]; 6 h, 1 %): 2.0
AKR1C2 expression compared to control ([2]; 6 h, 1 %): 1.3
CD36 expression compared to control ([2]; 6 h, 1 %): 0.7
CYP1A1 expression compared to control ([2]; 6 h, 1 %): 15.4
CYP1B1 expression compared to control ([2]; 6 h, 1 %): 7.1
FTH1P expression compared to control ([2]; 6 h, 1 %): 1.3
FTL expression compared to control ([2]; 6 h, 1 %): 1.5
GCLC expression compared to control ([2]; 6 h, 1 %): 1.3
HMOX1 expression compared to control ([2]; 6 h, 1 %): 1.0
NQO1 expression compared to control ([2]; 6 h, 1 %): 1.3
S100A8 expression compared to control ([2]; 6 h, 1 %): 1.4
TXNRD1 expression compared to control ([2]; 6 h, 1 %): 2.1
UGT1A1 expression compared to control ([2]; 6 h, 1 %): 1.4
AKR1B10 expression compared to control ([2]; 6 h, 10 %): 1.0
AKR1C1 expression compared to control ([2]; 6 h, 10 %): 2.6
AKR1C2 expression compared to control ([2]; 6 h, 10 %): 1.8
CD36 expression compared to control ([2]; 6 h, 10 %): 0.7
CYP1A1 expression compared to control ([2]; 6 h, 10 %): 33.2
CYP1B1 expression compared to control ([2]; 6 h, 10 %): 17.1
FTH1P expression compared to control ([2]; 6 h, 10 %): 1.4
FTL expression compared to control ([2]; 6 h, 10 %): 1.9
GCLC expression compared to control ([2]; 6 h, 10 %): 1.5
HMOX1 expression compared to control ([2]; 6 h, 10 %): 1.2
NQO1 expression compared to control ([2]; 6 h, 10 %): 1.5
S100A8 expression compared to control ([2]; 6 h, 10 %): 1.4
TXNRD1 expression compared to control ([2]; 6 h, 10 %): 2.6
UGT1A1 expression compared to control ([2]; 6 h, 10 %): 1.5
AHR expression compared to control ([2]; 6 h, 50 %): 0.9
AKR1B10 expression compared to control ([2]; 6 h, 50 %): 1.1
AKR1C1 expression compared to control ([2]; 6 h, 50 %): 3.5
AKR1C2 expression compared to control ([2]; 6 h, 50 %): 3.7
CD36 expression compared to control ([2]; 6 h, 50 %): 0.8
CYP1A1 expression compared to control ([2]; 6 h, 50 %): 57.8
CYP1B1 expression compared to control ([2]; 6 h, 50 %): 49.5
FTH1P expression compared to control ([2]; 6 h, 50 %): 2.1
FTL expression compared to control ([2]; 6 h, 50 %): 3.5
GCLC expression compared to control ([2]; 6 h, 50 %): 2.4
GCLM expression compared to control ([2]; 6 h, 50 %): 3.8
HMOX1 expression compared to control ([2]; 6 h, 50 %): 3.5
NQO1 expression compared to control ([2]; 6 h, 50 %): 2.8
NQO2 expression compared to control ([2]; 6 h, 50 %): 2.0
S100A8 expression compared to control ([2]; 6 h, 50 %): 1.4
SLC7A11 expression compared to control ([2]; 6 h, 50 %): 5.4
TXNRD1 expression compared to control ([2]; 6 h, 50 %): 7.9
UGT1A1 expression compared to control ([2]; 6 h, 50 %): 1.9
UGT1A9 expression compared to control ([2]; 6 h, 50 %): 1.7
sensitizing potential (Sensitizing / Non-sensitizing) ([3]; 1%): Sensitizing
sensitizing potential (Sensitizing / Non-sensitizing) ([3]; 10%): Sensitizing
sensitizing potential (Sensitizing / Non-sensitizing) ([3]; 50%): Sensitizing
sensitizing power (class) ([3]; from successive dilutions 50%, 10%, 1%, 0.1%): STRONG
